Results from patent US8932997B2, “Anti-accretion agents for drilling fluids” (Lamberti SpA, priority 2008, dated 2015).

What was measured:
[1] = Anti-accretion test (hot roll cells with steel bars and shale chips); conditions: additive amount per 350 ml test fluid as in fluid description; 50 g Arne clay chips; rolled 30 minutes at room temperature
Skeletonema costatum = assay: Marine algal growth inhibition test (ISO/DP 10253); format: cell-based; conditions: concentrations 0.1 to 100.0 mg/l seawater
Procedure: The test was carried out according the ISO protocol ISO/DP 10253—Water quality—Marine algal growth inhibition test with Skeletonema costatum and Phaeodactylum tricornutum.
A culture of the marine algae Skeletonema costatum was exposed to a series of test concentrations of Additive 1 In addition to a control test, concentrations ranging from 0.1 to 100.0 mg/I seawater were tested. The test lasted for 72 hours, and EC50 (72 hours) was calculated to be higher than 10.0 mg/litre.

[Cl-].[K+] [KCl, potassium chloride, reference compound]
accretion % (wt % of shale accreted on metal surface) [1]: >70%

triethanolamine trioleate [Additive 1]
accretion % (wt % of shale accreted on metal surface) [1]: 10% | EC50 (72 hours) algal growth inhibition (Skeletonema costatum): higher than 10.0 mg/litre
